Results taken from PubChem BioAssay (NCI).
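Five concentrations, 48 hours, 96-well plates. TGI: total growth inhibition.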

Tests used:
Assay in all cases: NCI anticancer screen, dose series, 48 h
UO-31 renal = test system: UO-31 renal
SK-MEL-5 melanoma = test system: SK-MEL-5 melanoma
SK-MEL-28 melanoma = test system: SK-MEL-28 melanoma
HCT-15 colon = test system: HCT-15 colon
SF-539 CNS = test system: SF-539 CNS
MDA-MB-435 = test system: MDA-MB-435
NCI-H226 lung = test system: NCI-H226 lung
OVCAR-8 ovarian = test system: OVCAR-8 ovarian
ACHN renal = test system: ACHN renal
SK-OV-3 ovarian = test system: SK-OV-3 ovarian
K-562 leukemia = test system: K-562 leukemia
MDA-N = test system: MDA-N
NCI/ADR-RES ovarian = test system: NCI/ADR-RES ovarian
UACC-257 melanoma = test system: UACC-257 melanoma
OVCAR-4 ovarian = test system: OVCAR-4 ovarian
OVCAR-3 ovarian = test system: OVCAR-3 ovarian
EKVX NSCLC = test system: EKVX NSCLC
HL-60(TB) leukemia = test system: HL-60(TB) leukemia
M14 melanoma = test system: M14 melanoma
DU-145 prostate = test system: DU-145 prostate
IGROV1 ovarian = test system: IGROV1 ovarian
786-0 renal = test system: 786-0 renal
CCRF-CEM leukemia = test system: CCRF-CEM leukemia
COLO 205 colon = test system: COLO 205 colon
SF-268 CNS = test system: SF-268 CNS
NCI-H522 lung = test system: NCI-H522 lung
NCI-H23 lung = test system: NCI-H23 lung
PC-3 prostate = test system: PC-3 prostate
SK-MEL-2 melanoma = test system: SK-MEL-2 melanoma
MALME-3M melanoma = test system: MALME-3M melanoma
HCC-2998 colon = test system: HCC-2998 colon
HT29 colon = test system: HT29 colon
T-47D breast = test system: T-47D breast
HS 578T breast = test system: HS 578T breast
U251 CNS = test system: U251 CNS
UACC-62 melanoma = test system: UACC-62 melanoma
SN12C renal = test system: SN12C renal
MOLT-4 leukemia = test system: MOLT-4 leukemia
SW-620 colon = test system: SW-620 colon
SNB-19 CNS = test system: SNB-19 CNS
LOX IMVI melanoma = test system: LOX IMVI melanoma
SNB-75 CNS = test system: SNB-75 CNS
HOP-92 NSCLC = test system: HOP-92 NSCLC
NCI-H460 lung = test system: NCI-H460 lung
KM12 colon = test system: KM12 colon
MDA-MB-231 breast = test system: MDA-MB-231 breast
HCT-116 colon = test system: HCT-116 colon
A498 renal = test system: A498 renal
SF-295 CNS = test system: SF-295 CNS
RPMI-8226 leukemia = test system: RPMI-8226 leukemia
A549 NSCLC = test system: A549 NSCLC
BT-549 breast = test system: BT-549 breast
CAKI-1 renal = test system: CAKI-1 renal
OVCAR-5 ovarian = test system: OVCAR-5 ovarian
TK-10 renal = test system: TK-10 renal
MCF7 breast = test system: MCF7 breast
RXF 393 renal = test system: RXF 393 renal
HOP-62 NSCLC = test system: HOP-62 NSCLC
SR leukemia = test system: SR leukemia

## CC1C(=O)OCC2=CCN3CCC(OC(=O)C(C)C1(C)O)C23 (configuration not stated)
UO-31 renal
  TGI: > 100 µM
SK-MEL-5 melanoma
  TGI: > 100 µM
SK-MEL-28 melanoma
  TGI: > 100 µM
HCT-15 colon
  TGI: > 100 µM
SF-539 CNS
  TGI: > 100 µM
MDA-MB-435
  TGI: > 100 µM
NCI-H226 lung
  TGI: > 100 µM
OVCAR-8 ovarian
  TGI: > 100 µM
ACHN renal
  TGI: > 100 µM
SK-OV-3 ovarian
  TGI: > 100 µM
K-562 leukemia
  TGI: > 100 µM
MDA-N
  TGI: > 100 µM
NCI/ADR-RES ovarian
  TGI: > 100 µM
UACC-257 melanoma
  TGI: > 100 µM
OVCAR-4 ovarian
  TGI: > 100 µM
OVCAR-3 ovarian
  TGI: > 100 µM
EKVX NSCLC
  TGI: > 100 µM
HL-60(TB) leukemia
  TGI: > 100 µM
M14 melanoma
  TGI: > 100 µM
DU-145 prostate
  TGI: > 100 µM
IGROV1 ovarian
  TGI: > 100 µM
786-0 renal
  TGI: > 100 µM
CCRF-CEM leukemia
  TGI: > 100 µM
COLO 205 colon
  TGI: > 100 µM
SF-268 CNS
  TGI: > 100 µM
NCI-H522 lung
  TGI: > 100 µM
NCI-H23 lung
  TGI: > 100 µM
PC-3 prostate
  TGI: > 100 µM
SK-MEL-2 melanoma
  TGI: > 100 µM
MALME-3M melanoma
  TGI: > 100 µM
HCC-2998 colon
  TGI: > 100 µM
HT29 colon
  TGI: > 100 µM
T-47D breast
  TGI: > 100 µM
HS 578T breast
  TGI: > 100 µM
U251 CNS
  TGI: > 100 µM
UACC-62 melanoma
  TGI: > 100 µM
SN12C renal
  TGI: > 100 µM
MOLT-4 leukemia
  TGI: > 100 µM
SW-620 colon
  TGI: > 100 µM
SNB-19 CNS
  TGI: > 100 µM
LOX IMVI melanoma
  TGI: > 100 µM
SNB-75 CNS
  TGI: > 100 µM
HOP-92 NSCLC
  TGI: > 100 µM
NCI-H460 lung
  TGI: > 100 µM
KM12 colon
  TGI: > 100 µM
MDA-MB-231 breast
  TGI: > 100 µM
HCT-116 colon
  TGI: > 100 µM
A498 renal
  TGI: > 100 µM
SF-295 CNS
  TGI: > 100 µM
RPMI-8226 leukemia
  TGI: > 100 µM
A549 NSCLC
  TGI: > 100 µM
BT-549 breast
  TGI: > 100 µM
CAKI-1 renal
  TGI: > 100 µM
OVCAR-5 ovarian
  TGI: > 100 µM
TK-10 renal
  TGI: > 100 µM

## COC(=O)Cc1ccc2c(cnn2-c2ccccc2)c1OC
SK-MEL-5 melanoma
  TGI: > 10 µM
SK-MEL-28 melanoma
  TGI: > 10 µM
HCT-15 colon
  TGI: > 10 µM
SF-539 CNS
  TGI: > 10 µM
MDA-MB-435
  TGI: > 10 µM
NCI-H226 lung
  TGI: > 10 µM
OVCAR-8 ovarian
  TGI: > 10 µM
ACHN renal
  TGI: > 10 µM
SK-OV-3 ovarian
  TGI: > 10 µM
K-562 leukemia
  TGI: > 10 µM
MDA-N
  TGI: > 10 µM
NCI/ADR-RES ovarian
  TGI: > 10 µM
UACC-257 melanoma
  TGI: > 10 µM
OVCAR-4 ovarian
  TGI: > 10 µM
OVCAR-3 ovarian
  TGI: > 10 µM
EKVX NSCLC
  TGI: > 10 µM
HL-60(TB) leukemia
  TGI: > 10 µM
M14 melanoma
  TGI: > 10 µM
DU-145 prostate
  TGI: > 10 µM
IGROV1 ovarian
  TGI: > 10 µM
786-0 renal
  TGI: > 10 µM
CCRF-CEM leukemia
  TGI: > 10 µM
COLO 205 colon
  TGI: > 10 µM
SF-268 CNS
  TGI: > 10 µM
NCI-H522 lung
  TGI: > 10 µM
NCI-H23 lung
  TGI: > 10 µM
PC-3 prostate
  TGI: > 10 µM
SK-MEL-2 melanoma
  TGI: > 10 µM
MALME-3M melanoma
  TGI: > 10 µM
HCC-2998 colon
  TGI: > 10 µM
HT29 colon
  TGI: > 10 µM
T-47D breast
  TGI: > 10 µM
MCF7 breast
  TGI: > 10 µM
HS 578T breast
  TGI: > 10 µM
RXF 393 renal
  TGI: > 10 µM
U251 CNS
  TGI: > 10 µM
HOP-62 NSCLC
  TGI: > 10 µM
SR leukemia
  TGI: > 10 µM
UACC-62 melanoma
  TGI: > 10 µM
SN12C renal
  TGI: > 10 µM
MOLT-4 leukemia
  TGI: > 10 µM
SW-620 colon
  TGI: > 10 µM
SNB-19 CNS
  TGI: > 10 µM
LOX IMVI melanoma
  TGI: > 10 µM
SNB-75 CNS
  TGI: > 10 µM
NCI-H460 lung
  TGI: > 10 µM
KM12 colon
  TGI: > 10 µM
MDA-MB-231 breast
  TGI: > 10 µM
HCT-116 colon
  TGI: > 10 µM
A498 renal
  TGI: > 10 µM
SF-295 CNS
  TGI: > 10 µM
RPMI-8226 leukemia
  TGI: > 10 µM
A549 NSCLC
  TGI: > 10 µM
BT-549 breast
  TGI: > 10 µM
CAKI-1 renal
  TGI: > 10 µM
OVCAR-5 ovarian
  TGI: > 10 µM
TK-10 renal
  TGI: > 10 µM

## C1=C2C3=[N+](CCCCC3)CC2Cc2ccsc21 (configuration not stated)
UO-31 renal
  TGI: > 100 µM
SK-MEL-5 melanoma
  TGI: > 100 µM
SK-MEL-28 melanoma
  TGI: > 100 µM
HCT-15 colon
  TGI: > 100 µM
MDA-MB-435
  TGI: > 100 µM
NCI-H226 lung
  TGI: > 100 µM
OVCAR-8 ovarian
  TGI: > 100 µM
ACHN renal
  TGI: > 100 µM
SK-OV-3 ovarian
  TGI: > 100 µM
K-562 leukemia
  TGI: > 100 µM
MDA-N
  TGI: > 100 µM
NCI/ADR-RES ovarian
  TGI: > 100 µM
UACC-257 melanoma
  TGI: 85.3 µM
OVCAR-4 ovarian
  TGI: > 100 µM
OVCAR-3 ovarian
  TGI: > 100 µM
EKVX NSCLC
  TGI: > 100 µM
HL-60(TB) leukemia
  TGI: > 100 µM
M14 melanoma
  TGI: > 100 µM
DU-145 prostate
  TGI: > 100 µM
IGROV1 ovarian
  TGI: > 100 µM
786-0 renal
  TGI: > 100 µM
CCRF-CEM leukemia
  TGI: > 100 µM
COLO 205 colon
  TGI: > 100 µM
SF-268 CNS
  TGI: > 100 µM
NCI-H522 lung
  TGI: > 100 µM
NCI-H23 lung
  TGI: > 100 µM
PC-3 prostate
  TGI: > 100 µM
SK-MEL-2 melanoma
  TGI: > 100 µM
MALME-3M melanoma
  TGI: > 100 µM
HT29 colon
  TGI: > 100 µM
T-47D breast
  TGI: > 100 µM
MCF7 breast
  TGI: > 100 µM
HS 578T breast
  TGI: > 100 µM
RXF 393 renal
  TGI: > 100 µM
U251 CNS
  TGI: > 100 µM
HOP-62 NSCLC
  TGI: > 100 µM
UACC-62 melanoma
  TGI: > 100 µM
SN12C renal
  TGI: > 100 µM
MOLT-4 leukemia
  TGI: > 100 µM
SW-620 colon
  TGI: > 100 µM
SNB-19 CNS
  TGI: > 100 µM
LOX IMVI melanoma
  TGI: > 100 µM
SNB-75 CNS
  TGI: > 100 µM
HOP-92 NSCLC
  TGI: > 100 µM
NCI-H460 lung
  TGI: > 100 µM
KM12 colon
  TGI: > 100 µM
MDA-MB-231 breast
  TGI: > 100 µM
HCT-116 colon
  TGI: > 100 µM
A498 renal
  TGI: > 100 µM
SF-295 CNS
  TGI: > 100 µM
A549 NSCLC
  TGI: > 100 µM
BT-549 breast
  TGI: > 100 µM
CAKI-1 renal
  TGI: > 100 µM
OVCAR-5 ovarian
  TGI: > 100 µM
TK-10 renal
  TGI: > 100 µM
